Here are results for one compound from patent US9604974B2, “Compounds as modulator of JAK-STAT pathway, methods and applications thereof” (UNIVERSITY OF MYSORE, priority 2015, dated 2017).

Molecules are shown by their SMILES.

One assay concerns JAK2. The assay can be described thus: IL-6 induced JAK2 phosphorylation in Hep3B. Type of assay: cell-based. The following applies: 10 μMol/L CIMO, IL-6 10 ng/mL. As for the experimental part:
FIG. 3 depicts comparative study of cell viability between STAT3-siRNA transfected and Compound 1 (CIMO) treated HepG2 cells [A]. Correspondingly, Western Blot analysis is used to assess the levels of phospho-STAT3 and STAT3 in HepG2 cells with siRNA-mediated depletion STAT3 expression and on exposure to 4 μM CIMO. Whole cell extract is prepared and resolved on SDS-PAGE gel, electrotransferred onto nitrocellulose membrane, and probed for phospho-STAT3 and the same blot is stripped and reprobed with STAT3 antibody and Beta actin to verify equal protein loading. [B] showcases the modulation of STAT3 mediated transcription, α2-M promoter activity by Compound 1 (CIMO) in HepG2 cells. [C] depicts the inhibition of IL-6-induced phosphorylation of STAT3, JAK1 and JAK2 by Compound 1 (CIMO). Hep3B cells (5×10^5/mL) are treated with 10 μMol/L CIMO for the indicated times and then stimulated with IL-6 (10 ng/mL) for about 15 minutes. Whole-cell extracts are then prepared, resolved on SDS-PAGE gel, electrotransferred onto nitrocellulose membrane and probed with phospho-STAT3, phospho-JAK1 and phospho-JAK2 antibodies. The same blot is stripped and reprobed with STAT3, JAK1 and JAK2 antibody to verify equal protein loading. [D] and [E], showcases the suppression of STAT3 regulated gene products involved in cell proliferation and survival by Compound 1 (CIMO). […]

For the next assay, the system named is c-Src. The assay can be described thus: Western blot of constitutive phospho-Src in HepG2. Type of assay: cell-based, human. The settings on record: HepG2, 10 μMol/L CIMO. (Immunoblotting shows a protein as a band on a membrane.)
Another assay has as its system PLC/PRF5. Description: MTT anti-proliferative assay, PLC/PRF5. The assay is classed as cell-based. The following applies: Homo sapiens, PLC-PRF-5. The protocol: (§1) The anti-proliferative activity of Formula I compounds are studied on HepG2 cells using MTT assay. Briefly, the cells (2.5×10^4/ml) are incubated in triplicate in a 96-well plate in the presence or absence of different concentrations of compounds in a final volume of 0.2 ml up to 72 hours at 37° C. Thereafter, 20 μl MTT solution (5 mg/ml in PBS) is added to each well. After 2 hours of incubation at 37° C., 0.1 ml lysis buffer (20% SDS, 50% dimethyl-formamide) is added; incubation is continued overnight at 37° C.; and the optical density (OD) at 570 nm is measured by Tecan plate reader.
(§2) Additionally, Compound 1 is tested on a panel of six cell lines including Hep3B, PLC/PRF5, AGS (gastric cancer cell line), DU145 (prostrate cancer cell line), MDA MB231 (breast cancer cell line) and CAL27 (head and neck cancer cell line) cells.

The test system of another assay is Huh 7-Luc tumors. Description: Orthotopic human HCC model, bioluminescence tumor growth. The assay is classed as in vivo, athymic nu/nu female mice. The following applies: 10 mg/kg intraperitoneal, five days a week; p value=0.0385. As for the experimental part: All animal experiments were performed according to protocols approved by the SingHealth Institutional Animal Use and Care Committee. For drug efficacy study, eight week-old athymic nu/nu female mice (from Biolasco, Taiwan) were implanted with the Huh 7-Luc cells orthotopically as described in the below examples. When the bioluminescence signal reached 10^6, mice were treated either with vehicle (1% DMSO), 2 mg/kg of CIMO or 10 mg/kg of CIMO five days a week intraperitoneally. Tumor development was monitored twice a week by measuring the bioluminescence signals. Mice were euthanized when the humane end-point criteria is met by CO2 inhalation. Primary liver tumor and lung tissues were excised, snap-frozen and stored at −80° C. until further analysis.
The antitumor potential of CIMO is tested in vivo via. intra-peritoneal administration in an orthotopic model of human HCC using Huh 7-Luc transfected cells. 100 μl containing 3×10^6 Huh 7-Luc cells are injected subcutaneously in the right flank of Nude mice. When the tumor volume reaches approximately 1 cm^3, tumor is harvested, cut into 2 mm^3 pieces and then implanted orthotopically into the liver of Nude mice. […] The development of tumors is monitored by imaging and quantification of the bioluminescence signals using the Xenogen IVIS system (Caliper Life Sciences, CA). […]

Assay [1] concerns DU145 (prostrate cancer cell line). Description: MTT anti-proliferative assay, DU145. The assay is classed as cell-based. The settings on record: Homo sapiens, DU-145. The protocol:
as §1, §2
In general terms: Tetrazolium assays rely on reduction of a dye to a coloured formazan, in cell work by metabolically active cells.

Assay [2] deals with AGS (gastric cancer cell line). Description: MTT anti-proliferative assay, AGS. The assay is classed as cell-based. The following applies: Homo sapiens. The protocol: as §1, §2
Assay [3] relates to STAT3 mediated transcription (α2-M promoter). Description: α2-macroglobulin promoter luciferase reporter assay. Type of assay: cell-based, human. The settings on record: HepG2, versus DMSO control. The protocol:
Increased STAT3 activity is known to stimulate oncogenicity of hepatocellular carcinoma. Therefore, evaluation of the level of phosphorylated STAT3 (Y705) in HepG2 cells is carried out with siRNA-mediated deletion of STAT3 transcripts and/or exposure to CIMO, using Western Blot analysis. Experiments related to transient-transfection of STAT3 siRNA in HepG2 cells and STAT3 mediated Transcription activity are performed wherein 60-70% confluent of cells in a 6-well plate are transfected using FuGENE6 (Roche Molecular Biochemicals, Indianapolis, USA) transfection reagent. Luciferase assay is performed using Dual Luciferase Assay Kit (Promega Corp, Singapore). Transfections are carried out in triplicate using 1 μg of the appropriate α-2 macroglobulin luciferase reporter plasmid and empty vector per transfection along with 0.2 μg of Renilla expression plasmid as control for transfection efficiency. Luciferase activities are assayed 48 hours after transfection using the dual Luciferase Assay System (Promega Corp, Singapore)
In addition, assessment of STAT3 mediated transcriptional activity using an α2-macroglobulin (α2-M) promoter in HepG2 cells with either siRNA-mediated depletion of STAT3 expression or on exposure to CIMO is carried out as described above (FIG. 3B).
(In a reporter assay the amount or activity of a reporter protein is the signal.)

The test system of assay [4] is MDA MB231 (breast cancer cell line). The assay can be described thus: MTT anti-proliferative assay, MDA MB231. Type of assay: cell-based. The following applies: Homo sapiens, MDA-MB-231. As for the experimental part:
as §1, §2

`COc1ccc(C2CNC(c3cn(Cc4ccc(-c5ccccc5C#N)cc4)c4ccccc34)OC23CCCCC3)cc1` (centres unmarked) [Compound 1]: the “IL-6 induced phosphorylation of JAK2” value in the assay on JAK2 is given as “substantially down-regulates”. In addition, the “phosphorylation of c-Src kinases” value in the assay on c-Src was “significant inhibition”. Besides, the IC50 (usually the concentration at which inhibition is half-maximal) turned out to be 38.8 µM in the assay on PLC/PRF5, 38.8 µM in assay [1], 36.9 µM in assay [2] and 24.3 µM in assay [4]. In addition, in the assay with Huh 7-Luc tumors, the “tumor growth versus DMSO treated controls” value is listed as “significant inhibition of tumor growth”. Besides, the α2-M promoter activity entry in assay [3] was “decreased α2-M promoter activity”.
